In publication PMC11503522, “Native Mass Spectrometry of Membrane Protein–Lipid Interactions in Different Detergent Environments” (Analytical Chemistry, 2024):

How the values were obtained:
[1] = target: T1, AmtB-GlnK complex (Escherichia coli, UniProt P69681); assay: native MS, mole fraction of lipid-bound states; assay type: binding; details: ADP present, 200 mM ammonium acetate pH 7.4
T1 construct: with Nitrogen regulatory protein GlnK
T1 sequence (P69681 23-428): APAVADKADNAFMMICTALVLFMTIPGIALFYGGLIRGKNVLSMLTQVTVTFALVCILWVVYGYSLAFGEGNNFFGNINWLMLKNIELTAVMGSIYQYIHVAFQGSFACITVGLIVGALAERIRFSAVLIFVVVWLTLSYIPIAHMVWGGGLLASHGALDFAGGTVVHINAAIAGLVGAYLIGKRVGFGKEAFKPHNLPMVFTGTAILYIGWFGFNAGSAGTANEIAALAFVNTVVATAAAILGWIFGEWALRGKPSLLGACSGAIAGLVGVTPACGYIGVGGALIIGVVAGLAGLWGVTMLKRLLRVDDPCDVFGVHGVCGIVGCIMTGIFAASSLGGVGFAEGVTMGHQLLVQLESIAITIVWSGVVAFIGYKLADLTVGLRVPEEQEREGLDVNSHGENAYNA
T1 sequence (P0AC55 1-112 partner): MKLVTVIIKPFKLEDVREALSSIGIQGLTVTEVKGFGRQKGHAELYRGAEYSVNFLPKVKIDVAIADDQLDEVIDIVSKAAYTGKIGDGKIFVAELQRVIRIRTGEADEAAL

[2] = target: T2, AqpZ (AqpZ-STII) (Escherichia coli, UniProt P60844); assay: native MS lipid titration, sequential binding model; details: LDAO; first lipid bound; range over conditions; 200 mM ammonium acetate pH 7.4, room temperature; read-out: Kd1
T2 construct: C-terminal Strep-tag II
T2 sequence (P60844 1-231): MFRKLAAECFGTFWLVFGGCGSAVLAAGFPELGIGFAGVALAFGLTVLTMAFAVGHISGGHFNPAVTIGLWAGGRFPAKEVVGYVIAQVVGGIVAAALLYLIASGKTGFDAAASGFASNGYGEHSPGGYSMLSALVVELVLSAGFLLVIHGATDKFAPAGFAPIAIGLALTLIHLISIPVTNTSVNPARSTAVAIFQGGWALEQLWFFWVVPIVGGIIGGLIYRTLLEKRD

[3] = target: T3, Aquaporin Z from Escherichia coli containing a C-terminal Strep-tag II (Escherichia coli), P60844; assay: native MS; 1 uM AqpZ in 200 mM ammonium acetate pH 7.4 with 2x CMC detergent (C8E4 or LDAO alone; DM, OGNG, NG, C8E4 or LDAO with 5 mM SPM or 60 mM TMAO); nanoESI, Exactive Plus EMR Orbitrap, room temperature; details: remark: other sources report otherwise
T3 chain: T2 sequence (P60844 1-231)

CCCCCCCC/C=C\CCCCCCCC(=O)OC[C@H](COP(=O)(O)OCC(O)COP(=O)(O)OC[C@@H](COC(=O)CCCCCCC/C=C\CCCCCCCC)OC(=O)CCCCCCC/C=C\CCCCCCCC)OC(=O)CCCCCCC/C=C\CCCCCCCC (some centres unmarked) [TOCDL]
native MS, mole fraction of lipid-bound states ([1]; 2 μM complex, 25 μM lipid, C8E4, LDAO, DM or NG): binding of TOCDL was more prominent in LDAO and DM
Kd [2]: 300 to 1400 nM

CCCCCCCC/C=C\CCCCCCCC(=O)O[C@H](COC(=O)CCCCCCCCCCCCCCC)COP(=O)(O)OCC(O)CO (some centres unmarked) [POPG]
native MS, mole fraction of lipid-bound states ([1]; several detergents): AmtB-GlnK in different detergent environments showed comparable binding of POPG

CCCCCCCC/C=C\CCCCCCCC(=O)O[C@H](COC(=O)CCCCCCCCCCCCCCC)COP(=O)(O)O [POPA]
native MS, mole fraction of lipid-bound states ([1]; several detergents): POPA and POPS binding to AmtB-GlnK was broadly comparable for the different detergents

B1: Aquaporin Z from Escherichia coli containing a C-terminal Strep-tag II, P60844 1-231 (natural protein)
chain: T2 sequence (P60844 1-231)
stoichiometry N [3]: 4
